{"source": "patent US8729090B1", "about": "“Compositions and methods for inhibiting collagen production” (Florida State University Research Foundation, Inc., priority 2011, dated 2014)", "key": {"[1]": {"tested_on": "primary human lung fibroblasts", "test": "Inhibition of type I collagen secretion by primary human lung fibroblasts, western blot of cellular medium", "type": "cell-based", "conditions": "two days; for secretion of type I collagen polypeptides COLα1(I) and COLα2(I) into the cellular medium: western blot", "method": "Several chemical compounds were identified in this screen and tested for their ability to inhibit collagen production by primary human lung fibroblasts in culture. Lung fibroblasts are responsible for development of lung fibrosis. The compounds were added in a single dose of 100 μM to the lung fibroblasts, except compound 60D17, which was added at 10 μM. Two days after the addition of the compounds, the secretion of type I collagen into the cellular medium was analyzed by western blot. Both polypeptides which form type I collagen, COLα1(I) and COLα2(I), were analyzed.\nHere, COLα1 represents the α1 polypeptide of type I collagen, COLα2 represents the α2 polypeptide of type I collagen, and FIB represents fibronectin, which was the control."}, "lung fibroblasts": {"tested_on": "lung fibroblasts", "test": "Type I collagen expression of lung fibroblasts at therapeutic (nM) concentrations, western blot", "type": "cell-based, human", "method": "In lung fibrosis the process of excessive collagen accumulation is similar to the liver, but the cells responsible for collagen synthesis are lung fibroblasts. Therefore, I tested the potency of 60D17 at therapeutic concentrations in lung fibroblasts before 60D17 was tested at higher concentrations in these cells.\nLane 4 represents untreated control cells."}, "[2]": {"tested_on": "hepatic stellate cells (HSCs)", "test": "Inhibition of collagen α1(I) polypeptide synthesis in cultured hepatic stellate cells (HSCs), western blot", "type": "cell-based, rat", "conditions": "added at day 3, measured at day 7", "from_the_text": "HSCs are liver cells responsible for collagen synthesis in hepatic fibrosis. […] In fibrotic livers, HSCs increase type I collagen expression 50-100 fold. Similar changes can be reproduced when HSCs are isolated from rat livers and cultured in vitro.\nThree days after isolation and culturing, the HSCs still retain their quiescent phenotype and show little collagen expression. At day 5 after isolation the first significant increase in collagen expression becomes evident. After 7-8 days of culturing type I collagen expression increases 50-100 fold and attains its maximal level.\nI used this model to test the efficacy of 60D17 in inhibiting collagen expression, because it is relevant to liver fibrosis. 60D17 was added at 100 nM and 250 nM concentrations to HSCs at day 3 in the culture. The cells were cultured until day 7 and the level of collagen α1(I) polypeptide was measured by western blot.\nLane 1 contained untreated cells. Lane 2 contained HSCs treated with 250 nM of 60D17. Lane 3 contained HSCs treated with 100 nM of 60D17. The panel on the left represents the cellular levels of collagen α1(I) polypeptide measured by western blot. Actin (ACT) was used as the loading control. The right panel represents the collagen α1(I) polypeptide level in the cellular medium."}, "rat liver slices": {"tested_on": "rat liver slices", "test": "Collagen expression in precision cut rat liver slices, western blot", "type": "cell-based", "conditions": "1 μM, 4 days, four slices", "method": "In these experiments 60D17 was added to four different slices (lanes 2-5) […] at 1 μM concentration. The expression of both collagen α1(I) polypeptide, resolved here as procollagen (PRO-COLL1A1), and processed mature collagen (COLL 1A1) were measured by western blot. Lanes 1 and 6 were untreated control. Actin (ACT) was used as the loading control.\nPrecision cut liver slices were prepared from rat liver with a thickness of 350 μm and diameter of 8 mm. These slices were cultured in vitro for several days. Cutting the liver represents an injury thereto. In response to this injury, the slices initiate profibrotic changes. The response is similar to the fibrotic response of the intact organ, because the slices retain all different cell types and proper architecture of the organ. Thus, they mimic fibrosis initiation of the whole liver. Accordingly, this is a useful model to test the efficacy of 60D17 in blocking the profibrotic reaction."}, "[3]": {"test": "Initial animal studies, tolerability in rats", "type": "in vivo"}, "collagen synthesis": {"tested_on": "collagen synthesis", "conditions": "cited from earlier work"}}, "data": [{"smiles": "NCc1ccc(N2CCOCC2)cc1", "note": "[1E10]", "values": [{"measurement": "antifibrotic activity (collagen production by human lung fibroblasts, FIG. 1)", "setting": "[1]; single dose of 100 μM", "value": "posses antifibrotic activity"}, {"measurement": "secretion of type I collagen polypeptides COLα1(I) and COLα2(I) into the cellular medium", "setting": "[1]; single dose of 100 μM", "value": "dramatically reduced excretion of both collagen polypeptides"}]}, {"smiles": "O=c1c2oc3cccc4c3n(c=2c(=O)c2ccccc12)CCC4", "note": "[11M14]", "values": [{"measurement": "antifibrotic activity (collagen production by human lung fibroblasts, FIG. 1)", "setting": "[1]; single dose of 100 μM", "value": "posses antifibrotic activity"}, {"measurement": "secretion of type I collagen polypeptides COLα1(I) and COLα2(I) into the cellular medium", "setting": "[1]; single dose of 100 μM", "value": "reduced production of α1(I) polypeptide more than that of α2 polypeptide"}]}, {"smiles": "Cc1cccn2c(=O)c3cc(C(=O)N4CCN(c5ccccc5)CC4)n(C)c3nc12", "note": "[13B8]", "values": [{"measurement": "antifibrotic activity (collagen production by human lung fibroblasts, FIG. 1)", "setting": "[1]; single dose of 100 μM", "value": "posses antifibrotic activity"}, {"measurement": "secretion of type I collagen polypeptides COLα1(I) and COLα2(I) into the cellular medium", "setting": "[1]; single dose of 100 μM", "value": "reduced production of α1(I) polypeptide more than that of α2 polypeptide"}]}, {"smiles": "COC(=O)c1ccc2c3c([nH]c2c1)CCCC3", "note": "[13F20]", "values": [{"measurement": "antifibrotic activity (collagen production by human lung fibroblasts, FIG. 1)", "setting": "[1]; single dose of 100 μM", "value": "posses antifibrotic activity"}, {"measurement": "secretion of type I collagen polypeptides COLα1(I) and COLα2(I) into the cellular medium", "setting": "[1]; single dose of 100 μM", "value": "dramatically reduced excretion of both collagen polypeptides"}]}, {"smiles": "Cc1cc(C)nc(-n2nc(-c3ccc4ccccc4c3)cc2O)n1", "note": "[45F6]", "values": [{"measurement": "antifibrotic activity (collagen production by human lung fibroblasts, FIG. 1)", "setting": "[1]; single dose of 100 μM", "value": "posses antifibrotic activity"}, {"measurement": "secretion of type I collagen polypeptides COLα1(I) and COLα2(I) into the cellular medium", "setting": "[1]; single dose of 100 μM", "value": "dramatically reduced excretion of both collagen polypeptides"}]}, {"smiles": "COc1ccc(N2CCOCC2)c(NC(=O)C(C)(C)C)c1", "note": "[45I22]", "values": [{"measurement": "antifibrotic activity (collagen production by human lung fibroblasts, FIG. 1)", "setting": "[1]; single dose of 100 μM", "value": "posses antifibrotic activity"}, {"measurement": "secretion of type I collagen polypeptides COLα1(I) and COLα2(I) into the cellular medium", "setting": "[1]; single dose of 100 μM", "value": "dramatically reduced excretion of both collagen polypeptides"}]}, {"smiles": "Cc1cc(C)nc(-n2[nH]c3nccc(-c4ccc5ccccc5c4)c3c2=O)n1", "note": "[49L20]", "values": [{"measurement": "antifibrotic activity (collagen production by human lung fibroblasts, FIG. 1)", "setting": "[1]; single dose of 100 μM", "value": "posses antifibrotic activity"}, {"measurement": "secretion of type I collagen polypeptides COLα1(I) and COLα2(I) into the cellular medium", "setting": "[1]; single dose of 100 μM", "value": "reduced production of α1(I) polypeptide more than that of α2 polypeptide"}]}, {"smiles": "CCN1CCCC1CNC(=O)c1ccc(S(=O)(=O)N2CCOCC2)cc1", "note": "(stereo not drawn) [57N21]", "values": [{"measurement": "antifibrotic activity (collagen production by human lung fibroblasts, FIG. 1)", "setting": "[1]; single dose of 100 μM", "value": "posses antifibrotic activity"}, {"measurement": "secretion of type I collagen polypeptides COLα1(I) and COLα2(I) into the cellular medium", "setting": "[1]; single dose of 100 μM", "value": "reduced production of α1(I) polypeptide more than that of α2 polypeptide"}]}, {"smiles": "Cn1c(C(=O)Nc2ccccc2)cc2c(=O)n3ccccc3nc21", "note": "[60D17-G]", "values": [{"measurement": "synthesis of type I collagen", "setting": "lung fibroblasts; nM concentrations, cells not given", "value": "interfered with the synthesis of type I collagen at nM concentrations"}]}, {"smiles": "Cc1cccn2c(=O)c3cc(C(=O)Nc4cccnc4)n(C)c3nc12", "note": "[60D17]", "values": [{"measurement": "antifibrotic activity (collagen production by human lung fibroblasts, FIG. 1)", "setting": "[1]; single dose of 10 μM", "value": "posses antifibrotic activity"}, {"measurement": "secretion of type I collagen polypeptides COLα1(I) and COLα2(I) into the cellular medium", "setting": "[1]; single dose of 10 μM", "value": "dramatically reduced excretion of both collagen polypeptides"}, {"measurement": "collagen α1(I) polypeptide expression in HSCs", "setting": "[2]; 100 nM", "value": "significantly inhibited collagen production"}, {"measurement": "collagen α1(I) polypeptide expression in HSCs", "setting": "[2]; 250 nM", "value": "almost completely blocked the increase in collagen expression"}, {"measurement": "expression of collagen α1(I) polypeptide in rat liver slices", "setting": "rat liver slices", "value": "significantly inhibited expression of collagen α1(I) polypeptide"}, {"measurement": "type I collagen expression", "setting": "lung fibroblasts; 50 nM", "value": "substantially ineffective"}, {"measurement": "synthesis of collagen α1(I) polypeptide", "setting": "lung fibroblasts; 100 nM", "value": "smaller effect"}, {"measurement": "synthesis of collagen α2(I) polypeptide", "setting": "lung fibroblasts; 100 nM", "value": "dramatically inhibited synthesis of collagen α2(I) polypeptide"}, {"measurement": "production of both polypeptides comprising type I collagen", "setting": "lung fibroblasts; 500 nM, 18 h", "value": "almost completely inhibited"}, {"measurement": "tolerability in rats", "setting": "[3]", "value": "well tolerated"}]}, {"smiles": "COC(=O)CNC(=O)c1cc2c(=O)n3cccc(C)c3nc2n1C", "note": "[60J13]", "values": [{"measurement": "antifibrotic activity (collagen production by human lung fibroblasts, FIG. 1)", "setting": "[1]; single dose of 100 μM", "value": "posses antifibrotic activity"}, {"measurement": "secretion of type I collagen polypeptides COLα1(I) and COLα2(I) into the cellular medium", "setting": "[1]; single dose of 100 μM", "value": "dramatically reduced excretion of both collagen polypeptides"}]}, {"smiles": "CN(C)c1cccc(-c2nn3c(-c4ccccn4)nnc3s2)c1", "note": "[60M4]", "values": [{"measurement": "antifibrotic activity (collagen production by human lung fibroblasts, FIG. 1)", "setting": "[1]; single dose of 100 μM", "value": "posses antifibrotic activity"}, {"measurement": "secretion of type I collagen polypeptides COLα1(I) and COLα2(I) into the cellular medium", "setting": "[1]; single dose of 100 μM", "value": "reduced α2 polypeptide more than α1 polypeptide"}]}, {"smiles": "CC(CCO)Nc1nc2c(c(=O)n(C)c(=O)n2C)n1Cc1ccccc1F", "note": "(stereo not drawn) [65N3]", "values": [{"measurement": "antifibrotic activity (collagen production by human lung fibroblasts, FIG. 1)", "setting": "[1]; single dose of 100 μM", "value": "posses antifibrotic activity"}, {"measurement": "secretion of type I collagen polypeptides COLα1(I) and COLα2(I) into the cellular medium", "setting": "[1]; single dose of 100 μM", "value": "dramatically reduced excretion of both collagen polypeptides"}]}, {"smiles": "CCSc1nnc2c(n1)OC(c1ccncc1)=Nc1ccccc1-2", "note": "[67C17]", "values": [{"measurement": "antifibrotic activity (collagen production by human lung fibroblasts, FIG. 1)", "setting": "[1]; single dose of 100 μM", "value": "posses antifibrotic activity"}, {"measurement": "secretion of type I collagen polypeptides COLα1(I) and COLα2(I) into the cellular medium", "setting": "[1]; single dose of 100 μM", "value": "reduced α2 polypeptide more than α1 polypeptide"}]}, {"smiles": "O=S(=O)(c1cccc2ccccc12)N1CCCNCC1", "note": "[ML-7]", "values": [{"measurement": "collagen synthesis", "setting": "collagen synthesis", "value": "interferes with collagen synthesis"}]}]}
